From patent US11780839B2, “Compounds for treating Huntington's disease” (PTC THERAPEUTICS, INC., priority 2018, dated 2023)

Test system: Endogenous Huntingtin Protein
Test: Endogenous Huntingtin Protein Assay (ELISA-based Meso Scale Discovery electrochemiluminescence)
Format: cell-based
Settings: MSD electrochemiluminescence, Table 1
Procedure, shortened: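 Sandwich MSD electrochemiluminescence immunoassay. Capture used MW1 (expanded polyglutamine) or MAB2166 antibody coated at 1 μg/mL overnight at 4 °C. Samples were bound overnight at 4 °C, then a rabbit monoclonal detection antibody and SULFO-TAG anti-rabbit, each at 0.25 μg/mL, were applied for 1 h at room temperature.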

Compound: CC1(C)C[C@H](Nc2ncc(-c3ccc(-c4c[nH]nn4)cc3O)nn2)[C@H](F)C(C)(C)N1 [Cpd 247, 2-(3-{[(3S,4S)-3-fluoro-2,2,6,6-tetramethylpiperidin-4-yl]amino}-1,2,4-triazin-6-yl)-5-(1H-1,2,3-triazol-4-yl)phenol]
- IC50: ≤ 100 nM

Compound: CC(C)(C)NC1CCN(c2ncc(-c3ccc(-c4c[nH]nc4F)cc3O)nn2)C1 (stereo not shown) [Cpd 174, 2-{3-[3-(tert-butylamino)pyrrolidin-1-yl]-1,2,4-triazin-6-yl}-5-(3-fluoro-1H-pyrazol-4-yl)phenol]
- IC50: ≤ 100 nM

Compound: CC(C)(C)N[C@H]1CCN(c2ncc(-c3ccc(-c4c[nH]nc4F)cc3O)nn2)C1 [Cpd 378, 2-{3-[(3S)-3-(tert-butylamino)pyrrolidin-1-yl]-1,2,4-triazin-6-yl}-5-(3-fluoro-1H-pyrazol-4-yl)phenol]
- IC50: ≤ 100 nM

Compound: CN(c1ncc(-c2ccc(-c3cn4ccnc4cn3)cc2O)nn1)C1CC(C)(C)NC(C)(C)C1 [Cpd 80, 5-(imidazo[1,2-a]pyrazin-6-yl)-2-{3-[methyl(2,2,6,6-tetramethylpiperidin-4-yl)amino]-1,2,4-triazin-6-yl}phenol]
- IC50: ≤ 100 nM

Compound: CC1(C)C[C@H](Nc2ncc(-c3ccc(-c4cn[nH]c4)cc3O)nn2)[C@H](O)C(C)(C)N1 [Cpd 298, (3S,4S)-4-({6-[2-hydroxy-4-(1H-pyrazol-4-yl)phenyl]-1,2,4-triazin-3-yl}amino)-2,2,6,6-tetramethylpiperidin-3-ol]
- IC50: 1000 to 3000 nM

Compound: CC1(NC2CCN(c3ncc(-c4ccc(-c5cn[nH]c5)cc4O)nn3)C2)COC1 (stereo not shown) [Cpd 325]
- IC50: 100 to 500 nM

Compound: CC(C)(C)NC1CCN(c2ncc(-c3ccc(-c4cn[nH]c4)cc3O)nn2)C1 (stereo not shown) [Cpd 138, 2-{3-[3-(tert-butylamino)pyrrolidin-1-yl]-1,2,4-triazin-6-yl}-5-(1H-pyrazol-4-yl)phenol]
- IC50: ≤ 100 nM

Compound: CN1CCC2(CC1)CN(c1ncc(-c3ccc(-c4cnn(C)n4)cc3O)nn1)C2 [Cpd 242, 2-[3-(7-methyl-2,7-diazaspiro[3.5]nonan-2-yl)-1,2,4-triazin-6-yl]-5-(2-methyl-2H-1,2,3-triazol-4-yl)phenol]
- IC50: ≤ 100 nM

Compound: CO[C@H]1[C@@H](N(C)c2ncc(-c3ccc(-c4cn[nH]c4)cc3O)nn2)CC(C)(C)NC1(C)C [Cpd 293, 2-(3-{[(3S,4S)-3-methoxy-2,2,6,6-tetramethylpiperidin-4-yl](methyl)amino}-1,2,4-triazin-6-yl)-5-(1H-pyrazol-4-yl)phenol]
- IC50: 100 to 500 nM

Compound: CC(C)NC1CCN(c2ncc(-c3ccc(-c4ncco4)cc3O)nn2)C1 (stereo not drawn) [Cpd 308, 5-(1,3-oxazol-2-yl)-2-(3-{3-[(propan-2-yl)amino]pyrrolidin-l-yl}-1,2,4-triazin-6-yl)phenol]
- IC50: 100 to 500 nM

Compound: Cn1ncc2cc(-c3ccc(-c4cnc(N5CCC(NC(C)(C)C)C5)nn4)c(O)c3)cnc21 (stereo not shown) [Cpd 221, 2-{3-[3-(tert-butylamino)pyrrolidin-1-yl]-1,2,4-triazin-6-yl}-5-(1-methyl-1H-pyrazolo[3,4-b]pyridin-5-yl)phenol]
- IC50: > 500 nM

Compound: CC1(C)CC(Nc2ncc(-c3ccc(-n4nccn4)cc3O)nn2)CC(C)(C)N1 [Cpd 121, 2-{3-[(2,2,6,6-tetramethylpiperidin-4-yl)amino]-1,2,4-triazin-6-yl}-5-(2H-1,2,3-triazol-2-yl)phenol]
- IC50: ≤ 100 nM

Compound: COc1cc(-c2ccc(-c3cnc(N[C@H]4CC(C)(C)NC(C)(C)[C@H]4F)nn3)c(O)c2)ncn1 [Cpd 290, 2-(3-{[(3S,4S)-3-fluoro-2,2,6,6-tetramethylpiperidin-4-yl]amino}-1,2,4-triazin-6-yl)-5-(6-methoxypyrimidin-4-yl)phenol]
- IC50: ≤ 100 nM

Compound: Cc1ncc(-c2ccc(-c3cnc(N(C)C4CC(C)(C)NC(C)(C)C4)nn3)c(O)c2)o1 [Cpd 74, 5-(2-methyl-1,3-oxazol-5-yl)-2-{3-[methyl(2,2,6,6-tetramethylpiperidin-4-yl)amino]-1,2,4-triazin-6-yl}phenol]
- IC50: ≤ 100 nM

Compound: CN(c1ncc(-c2ccc(-c3ccc4c(c3)OCO4)cc2O)nn1)C1CC(C)(C)NC(C)(C)C1 [Cpd 188, 5-(2H-1,3-benzodioxo1-5-yl)-2-{3-[methyl(2,2,6,6-tetramethylpiperidin-4-yl)amino]-1,2,4-triazin-6-yl}phenol]
- IC50: ≤ 100 nM

Compound: CC(C)NC1CCN(c2ncc(-c3ccc(-c4ccn(C)n4)cc3O)nn2)C1 (stereo not shown) [Cpd 213, 5-(1-methyl-1H-pyrazol-3-yl)-2-(3-{3-[(propan-2-yl)amino]pyrrolidin-1-yl}-1,2,4-triazin-6-yl)phenol]
- IC50: 1000 to 3000 nM

Compound: CC(C)(C)N[C@@H]1CCN(c2ncc(-c3ccc(-c4c[nH]nc4F)cc3O)nn2)C1 [Cpd 379, 2-{3-[(3R)-3-(tert-butylamino)pyrrolidin-1-yl]-1,2,4-triazin-6-yl}-5-(3-fluoro-1H-pyrazol-4-yl)phenol]
- IC50: ≤ 100 nM

Compound: CNC1CCN(c2ncc(-c3ccc(-c4ncns4)cc3O)nn2)C1 (stereo not shown) [Cpd 269, 2-{3-[3-(methylamino)pyrrolidin-1-yl]-1,2,4-triazin-6-yl}-5-(1,2,4-thiadiazol-5-yl)phenol]
- IC50: 100 to 500 nM

Compound: CNC1CCN(c2ncc(-c3ccc(-c4cnc(C)o4)cc3O)nn2)C1 (stereo not drawn) [Cpd 350, 2-{3-[3-(methylamino)pyrrolidin-l-yl]-1,2,4-triazin-6-yl}-5-(2-methyl-1,3-oxazol-5-yl)phenol]
- IC50: ≤ 100 nM

Compound: CN(c1cnc(-c2ccc(-n3nccn3)cc2O)nn1)C1CC(C)(C)NC(C)(C)C1 [Cpd 255, 2-{6-[methyl(2,2,6,6-tetramethylpiperidin-4-yl)amino]-1,2,4-triazin-3-yl}-5-(2H-1,2,3-triazol-2-yl)phenol]
- IC50: ≤ 100 nM

Compound: Oc1cc(-c2cn[nH]c2)ccc1-c1cnc(NC2C[C@H]3CC[C@@H](C2)N3)nn1 (stereo partly shown) [Cpd 78]
- IC50: ≤ 100 nM

Compound: CC(C)CNC1CCN(c2ncc(-c3ccc(-c4cn[nH]c4)cc3O)nn2)C1 (stereo not shown) [Cpd 297]
- IC50: ≤ 100 nM

Compound: Oc1cc(-c2cn[nH]c2)ccc1-c1cnc(N2CCC(NC3CCC(F)C3)C2)nn1 (stereo not shown) [Cpd 420, 2-(3-{3-[(3-fluorocyclopentyl)amino]pyrrolidin-1-yl}-1,2,4-triazin-6-yl)-5-(1H-pyrazol-4-yl)phenol]
- IC50: ≤ 100 nM

Compound: CN1CCC2(CC1)CN(c1ncc(-c3ccc(-c4c[nH]nc4F)cc3O)nn1)C2 [Cpd 149, 5-(3-fluoro-1H-pyrazol-4-yl)-2-[3-(7-methyl-2,7-diazaspiro[3.5]nonan-2-yl)-1,2,4-triazin-6-yl]phenol]
- IC50: ≤ 100 nM

Compound: Oc1cc(-c2cn[nH]c2)ccc1-c1cnc(N2CCC(C3(NC4CCOCC4)CC3)C2)nn1 (stereo not shown) [Cpd 421, 2-[3-(3-{1-[(oxan-4-yl)amino]cyclopropyl}pyrrolidin-1-yl)-1,2,4-triazin-6-yl]-5-(1H-pyrazol-4-yl)phenol]
- IC50: ≤ 100 nM

Compound: Oc1cc(-c2cn[nH]c2)ccc1-c1cnc(N2CCC(CNC3CCOCC3)C2)nn1 (stereo not shown) [Cpd 372, 2-[3-(3-{[(oxan-4-yl)amino]methyl}pyrrolidin-1-yl)-1,2,4-triazin-6-yl]-5-(1H-pyrazol-4-yl)phenol]
- IC50: ≤ 100 nM

Compound: CN(c1cnc(-c2ccc(-c3ccc4c(cnn4C)n3)cc2O)nn1)C1CC(C)(C)NC(C)(C)C1 [Cpd 394, 5-(1-methyl-1H-pyrazolo[4,3-b]pyridin-5-yl)-2-{6-[methyl(2,2,6,6-tetramethylpiperidin-4-yl)amino]-1,2,4-triazin-3-yl}phenol]
- IC50: ≤ 100 nM

Compound: CN1CCC2CN(c3ncc(-c4ccc(-c5cn[nH]c5)cc4O)nn3)CC2C1 (stereo not shown) [Cpd 166, 2-[3-(5-methyloctahydro-2H-pyrrolo[3,4-c]pyridin-2-yl)-1,2,4-triazin-6-yl]-5-(1H-pyrazol-4-yl)phenol]
- IC50: ≤ 100 nM
